Earlier results in patent publication US20200308123A1, “Novel formulation of metaxalone” (ICEUTICA PTY LTD., priority 2009, published 2020).
Where two headings read alike, the source gives them in different places.

Assays:
[1] = test system: major CYP enzymes such as CYP1A2, CYP2A6, CYP2B6, CYP2C8, CYP2C9, CYP2C19, CYP2D6, CYP2E1, and CYP3A4
[2] = test system: major CYP enzymes such as CYP1A2, CYP2B6, and CYP3A4; conditions: in vitro
[3] = test system: Hepatic Cytochrome P450 enzymes

lipophilicity (log P): 2.42
solubility (in 96% ethanol): soluble
solubility (in chloroform): freely soluble
solubility (in ether): practically insoluble
solubility (in methanol): soluble
solubility (in water): practically insoluble
inhibition of major CYP enzymes [1]: does not significantly inhibit
induction of major CYP enzymes [2]: does not significantly induce
SMILES: Cc1cc(C)cc(OCC2CNC(=O)O2)c1 (stereo not drawn) [Metaxalone]
CYP enzymes that appear to metabolize metaxalone [3]: CYP1A2, CYP2D6, CYP2E1, and CYP3A4 and, to a lesser extent, CYP2C8, CYP2C9, and CYP2FC19
